These results are taken from patent US12139498B1, “Positive allosteric modulators of the muscarinic acetylcholine receptor M4” (Vanderbilt University, priority 2023, dated 2024).

As a reminder, the inhibition is the relative decrease from the control value, in per cent. As a reminder, the CLint scaled is a measure of how fast metabolising enzymes remove a compound, apart from limits set by blood flow. One may read the IC50 as the concentration needed to halve the response being measured.

The test system of data set [1] is 68 primary molecular targets. The data set can be described thus: Eurofins LeadProfilingScreen off-target panel (binding). The note with it: 10 μM (binding), all targets except human muscarinic 2. As to the method:
(§1) Compound 70 was tested using Eurofins LeadProfilingScreen®, which detects potential off-target activity and determines relative selectivity. The screen includes 68 primary molecular targets, including several CNS targets recommended by the EMEA (European Medicines Evaluation Agency) to evaluate drug dependence potential.

The target of a further data set is T1, human muscarinic 2 (Homo sapiens, UniProt P08172).
T1 sequence (P08172 1-466): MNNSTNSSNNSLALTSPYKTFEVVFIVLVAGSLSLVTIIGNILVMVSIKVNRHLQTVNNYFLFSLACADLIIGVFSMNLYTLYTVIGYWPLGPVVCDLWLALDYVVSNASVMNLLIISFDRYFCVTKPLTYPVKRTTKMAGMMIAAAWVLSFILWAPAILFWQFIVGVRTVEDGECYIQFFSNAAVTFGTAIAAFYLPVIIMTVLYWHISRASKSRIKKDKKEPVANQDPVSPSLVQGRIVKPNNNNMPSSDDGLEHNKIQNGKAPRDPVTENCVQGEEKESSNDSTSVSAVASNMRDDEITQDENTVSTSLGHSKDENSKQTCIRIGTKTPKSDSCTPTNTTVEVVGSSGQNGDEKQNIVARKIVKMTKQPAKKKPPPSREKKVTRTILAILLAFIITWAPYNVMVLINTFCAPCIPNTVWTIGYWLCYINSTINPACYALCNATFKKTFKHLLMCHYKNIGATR
The data set can be described thus: Eurofins LeadProfilingScreen, human muscarinic 2 (binding). The note with it: 10 μM (binding). As to the method: as §1

Data set [2] is described as follows: Fraction unbound in rat plasma. Type of data set: in vitro ADME. The following applies: read-out: Rat Fu (plasma). As to the method: (§2) Compound 70 was tested in several in in vitro assays to investigate both metabolism and pharmacokinetics. These assays may be performed according to known methods as generally described in the following references: Conde-Ceide et al. ACS Med. Chem. Lett. 2015, 6, 716-720; Morris et al. J. Med. Chem. 2014, 57, 10192-10197; and Bubser et al. ACS Chem. Neurosci. 2014, 5, 920-942.

Data set [3] can be described thus: Fraction unbound in rat brain. The following applies: read-out: Rat Fu (brain). Format: in vitro ADME. As to the method: as §2
The nature of the next data set: Rat intrinsic clearance. Format: in vitro ADME. As to the method: as §2
A short description of the next data set: Dog intrinsic clearance. Type of data set: in vitro ADME. As to the method:
as §2

A short description of another data set: Cyno intrinsic clearance. Type of data set: in vitro ADME. The note with it: cynomolgus monkey. As to the method: as §2
A short description of data set [4]: Human intrinsic clearance. Format: in vitro ADME. As to the method:
as §2

Another data set concerns the target P450 2C9 (Homo sapiens, UniProt P11712). Put plainly: P450 2C9 inhibition. Type of data set: in vitro ADME. As to the method:
as §2

The target in the next data set is T2, P450 1A2 (Homo sapiens, UniProt P05177).
T2 sequence (P05177 1-516): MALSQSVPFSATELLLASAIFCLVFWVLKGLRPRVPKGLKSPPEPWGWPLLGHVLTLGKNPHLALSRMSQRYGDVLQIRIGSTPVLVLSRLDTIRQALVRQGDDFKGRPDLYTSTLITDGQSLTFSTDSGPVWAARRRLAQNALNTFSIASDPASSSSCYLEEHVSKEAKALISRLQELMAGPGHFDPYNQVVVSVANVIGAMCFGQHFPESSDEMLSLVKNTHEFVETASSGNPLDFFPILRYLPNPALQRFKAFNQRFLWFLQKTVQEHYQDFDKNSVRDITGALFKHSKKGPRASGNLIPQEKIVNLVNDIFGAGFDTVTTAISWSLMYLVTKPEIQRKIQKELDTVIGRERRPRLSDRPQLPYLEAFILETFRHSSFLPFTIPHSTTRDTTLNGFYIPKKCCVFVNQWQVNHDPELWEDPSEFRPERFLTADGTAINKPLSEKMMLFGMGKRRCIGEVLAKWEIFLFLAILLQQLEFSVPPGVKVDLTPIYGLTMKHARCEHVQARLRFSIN
The data set can be described thus: P450 1A2 inhibition. Format: in vitro ADME. As to the method:
as §2

Chain of P450 2C9 (P11712 whole entry): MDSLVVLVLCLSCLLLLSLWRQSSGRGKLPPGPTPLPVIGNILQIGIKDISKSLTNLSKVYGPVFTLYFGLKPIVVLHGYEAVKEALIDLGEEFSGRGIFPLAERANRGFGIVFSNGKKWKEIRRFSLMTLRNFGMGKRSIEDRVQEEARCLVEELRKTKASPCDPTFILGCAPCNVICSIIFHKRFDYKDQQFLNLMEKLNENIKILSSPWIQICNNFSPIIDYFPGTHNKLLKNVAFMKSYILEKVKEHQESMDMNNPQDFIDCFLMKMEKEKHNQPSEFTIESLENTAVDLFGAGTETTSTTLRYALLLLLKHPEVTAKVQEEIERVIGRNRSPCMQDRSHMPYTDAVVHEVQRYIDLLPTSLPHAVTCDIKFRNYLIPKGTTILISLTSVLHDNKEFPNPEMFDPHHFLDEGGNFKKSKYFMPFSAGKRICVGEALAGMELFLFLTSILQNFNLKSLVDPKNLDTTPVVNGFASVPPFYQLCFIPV

Turning to `Cc1c(N2CCc3nc(C4(F)CC4)sc3C2)nc2nn(C)c(=O)n2c1C` [Compound 70, 7-(2-(1-fluorocyclopropyl)-6,7-dihydrothiazolo[5,4-c]pyridin-5(4H)-yl)-2,5,6-trimethyl-[1,2,4]triazolo[4,3-a]pyrimidin-3(2H)-one], in [1], the “inhibition of each target in the LeadProfilingScreen” value is listed as below 50%. This molecule also returned an inhibition at 10 µM on human muscarinic 2 of 58%. The fraction unbound in data set [2] amounted to 0.267; in [3], 0.06. The CLint scaled in “Rat intrinsic clearance” is 36 mL/min/kg; in “Dog intrinsic clearance”, 17 mL/min/kg; in “Cyno intrinsic clearance”, 24 mL/min/kg; in [4], 9 mL/min/kg. Moreover, the IC50 against P450 2C9 and against P450 1A2 was above 30 µM in each case.
